According to patent US20180360898A1, “USE OF CRANBERRY DERIVED PHENOLIC COMPOUNDS AS ANTIBIOTIC SYNERGIZING AGENT AGAINST PATHOGENIC BACTERIA” (THE ROYAL INSTITUTION FOR THE ADVANCEMENT OF …, priority 2015, published 2018):

How the values were obtained:
[1] = system: P. aeruginosa PAO1; experiment: Minimum Inhibitory Concentration (MIC); type: cell-based, Pseudomonas aeruginosa; conditions: alone, MHB-II broth
Procedure: (§1) Pure stock cultures were maintained at −80° C. in 30% (v/v) frozen glycerol solution. Starter cultures were prepared by streaking frozen cultures onto LB agar (LB broth: tryptone 10 g/L, yeast extract 5 g/L and NaCl 5 g/L, supplemented with 1.5 w/v % agar (Fisher Scientific, Canada)). After overnight incubation at 37° C., a single colony was inoculated into 10 mL of LB broth and the culture was incubated at 37° C. on an orbital shaker at 150 rpm for time lengths specific to each experiment. LB broth was used for bacterial culture in all experiments unless otherwise specified.
(§2) Minimum Inhibitory Concentration (MIC) was determined by preparing two-fold serial dilutions of each cPACs fraction and antibiotic in Mueller Hinton broth adjusted with Ca^2+ and Mg^2+ (MHB-II, Oxoid, Fisher Scientific, Canada). […] Bacterial growth was assessed by (i) monitoring the optical density of the cell suspension in each well at 600 nm (OD600 nm), and (ii) the resazurin microtitre plate assay. In the resazurin microtitre plate assay, each well of a microtitre plate was supplemented with 20 μM resazurin, incubated in dark for 20 min at room temperature, followed by fluorescence measurements at ex/em 570/590 nm using a TECAN Infinite M200 Pro microplate reader (Tecan Group Ltd., Switzerland). […]

[2] = system: E. coli CFT073; experiment: Minimum Inhibitory Concentration (MIC); type: cell-based, Escherichia coli; conditions: alone, MHB-II broth
Procedure: as §1, §2

gentamicin
MIC [1]: 2 µg/mL
MIC [2]: 2 µg/mL
